“And” between values parts separate entries of the source, which are not always exact repeats. Equal entries are not always repeated. Where two headings read alike, the source gives them in different places.
How the values were obtained:
[1] = background statement, in words; cited from earlier work
uridine phosphorylase [2] = conditions: among the acyclouridines developed; cited from earlier work
[3] = test system: cleavage of FdUrd in certain tumor extracts; conditions: cited from earlier work
[4] = test system: human pancreatic carcinoma (DAN); conditions: in vitro; cited from earlier work
[5] = test system: human lung carcinoma (LX-1); conditions: LX-1, in vitro; cited from earlier work
[6] = test system: human pancreatic carcinoma (DAN); conditions: in vivo; cited from earlier work
[7] = test system: human lung carcinoma (LX-1); conditions: LX-1, in vivo; cited from earlier work
[8] = test system: human pancreatic carcinoma (DAN); assay: Growth inhibition of pancreatic carcinoma DAN cells in culture by FdUrd with or without potentiator; type: cell-based; conditions: for in vitro antineoplastic activity of FdUrd with potentiator, in words: DAN cells, combination with FdUrd; for effect of potentiator alone on the growth of DAN in culture: potentiator alone at 50 μM, no FdUrd
Method: Determination of the activities of HM-BAU and HM-BBAU as potentiators of FdUrd anti-neoplastic activity was carried out using a human pancreatic carcinoma (DAN) in culture. Details of the procedure are described in Chu et al., supra. Table 1 summarizes the effect of HM-BAU and HM-BBAU upon the inhibitory effect of FdUrd on the growth of pancreatic DAN cells in culture.
FdUrd alone at 0.1 and 0.3 μM inhibited the cell growth by 20% and 34% respectively.

uridine phosphorylase [9] = assay: Inhibition of uridine phosphorylase from mouse liver (105,000×g supernatant of liver homogenate); type: biochemical; conditions: mouse liver enzyme; apparent Ki = Ki(1+[S]/Km); type of inhibition not characterized
Method: (§1) Testing of compounds HM-BAU and HM-BBAU as inhibitors of uridine phosphorylase was performed using 105,000×g supernatant of mouse liver and human liver homogenates. Enzyme assays were carried out as described in Niedzwicki et al., Biochem. Pharm. 31, 1857 (1982), supra. Apparent Ki values are related to Ki by the following equation: [formula] where Kis and Kii are the inhibition constants that would have been estimated from the replots of slope and intercept, respectively, of a Lineweaver-Burk plot vs [I]. If a compound is a competitive inhibitor with respect to the substrate uridine. Kii =.infin. and Kis =Ki. Therefore:
(§2) apparent Ki =Ki (1+[S]/Km)
(§3) Thus, the true Ki values would be lower than the apparent Ki values by a factor of (1+S/Km). It must be noted, however, that these compounds were not characterized with regard to the type of inhibition (i.e. competitive, non-competitive or uncompetitive), nor were they tested as substrates for uridine phosphorylase.

uridine phosphorylase [10] = assay: Inhibition of uridine phosphorylase from human liver (105,000×g supernatant of liver homogenate); type: biochemical; conditions: for Ki: human liver enzyme, apparent Ki = Ki(1+[S]/Km), type of inhibition not characterized; for inhibition of human liver uridine phosphorylase, in words: compared with BAU and BBAU
Method: as §1, §2, §3

Water solubility = type: physicochemical; conditions: in words
[11] = potentiator 50 μM, added 5 minutes prior to FdUrd 0.1 μM, P < 0.001 vs control, p < 0.01 from one another
[12] = potentiator 50 μM, added 5 minutes prior to FdUrd 0.3 μM

Row | Ki (uridine phosphorylase [9]) [µM] | Ki (uridine phosphorylase [10]) [µM] | water solubility (Water solubility) | SMILES | water solubility [1] | effectiveness as uridine phosphorylase inhibitor, in words (uridine phosphorylase [2]) | inhibition of cleavage of FdUrd [3] | enhancement of antineoplastic activity of FdUrd [4] | enhancement of antineoplastic activity of FdUrd [5] | enhancement of antineoplastic activity of FdUrd [6] | enhancement of antineoplastic activity of FdUrd [7] | inhibition of human liver uridine phosphorylase, in words (uridine phosphorylase [10]) | in vitro antineoplastic activity of FdUrd with potentiator, in words [8] | % Growth Inhibition of DAN cells in culture [8, 11] | % Growth Inhibition of DAN cells in culture [8, 12] | effect of potentiator alone on the growth of DAN in culture [8] | other results
1 | – | – | – | O=c1[nH]c(=O)n(COCCO)cc1Cc1ccccc1 [BAU, 5-benzylacyclouridine] | not very water soluble | particularly effective | inhibit the cleavage of FdUrd | enhance the antineoplastic activity of FdUrd | enhance the antineoplastic activity of FdUrd | enhance the antineoplastic activity of FdUrd | enhance the antineoplastic activity of FdUrd | – | – | – | – | – | –
2 | – | – | – | O=c1[nH]c(=O)n(COCCO)cc1Cc1cccc(OCc2ccccc2)c1 [BBAU, 5-benzyloxybenzylacyclouridine] | not very water soluble | particularly effective | inhibit the cleavage of FdUrd | enhance the antineoplastic activity of FdUrd | enhance the antineoplastic activity of FdUrd | enhance the antineoplastic activity of FdUrd | enhance the antineoplastic activity of FdUrd | – | – | – | – | – | –
3 | – | – | – | O=c1[nH]c(=O)n([C@H]2C[C@H](O)[C@@H](CO)O2)cc1F [FdUrd, 5-fluoro-2'-deoxyuridine] | – | – | – | – | – | – | – | – | – | – | – | – | % Growth Inhibition of DAN cells in culture ([8]; FdUrd 0.1 μM alone, no potentiator): 20%; % Growth Inhibition of DAN cells in culture ([8]; FdUrd 0.3 μM alone, no potentiator): 34%; inhibition at 0.1 µM ([8]; Homo sapiens, FdUrd 0.1 μM alone, no potentiator): 20.2 ± 1.1%; inhibition at 0.3 µM ([8]; Homo sapiens, FdUrd 0.3 μM alone, no potentiator): 33.8 ± 1.3%; inhibition at 1 µM ([8]; Homo sapiens, FdUrd 1.0 μM alone, no potentiator): 66 ± 1.4%
4 | 1.6 | 2.5 | water soluble | O=c1[nH]c(=O)n(COC(CO)CO)cc1Cc1ccccc1 [HM-BAU, 5-Benzyl-1-[(1,3-dihydroxy-2-propoxy)methyl]uracil] | – | – | – | – | – | – | – | excellent inhibitors of this enzyme and superior to BAU and BBAU | significantly potentiated | 63.4 ± 1.1% and 63% | 67.8 ± 1.7% and 68% | do not affect the growth of DAN in culture | –
5 | 0.32 | 0.65 | water soluble | O=c1[nH]c(=O)n(COC(CO)CO)cc1Cc1cccc(OCc2ccccc2)c1 [HM-BBAU, 5-(m-Benzyloxybenzyl)-1-[(1,3-dihydroxy-2-propoxy)methyl]uracil] | – | – | – | – | – | – | – | excellent inhibitors of this enzyme and superior to BAU and BBAU | significantly potentiated | 73.6 ± 0.3% and 74% | 83.2 ± 1.3% and 83% | do not affect the growth of DAN in culture | % Growth Inhibition of DAN cells in culture ([8]; potentiator 50 μM, added 5 minutes prior to FdUrd 0.1 μM, P < 0.001 vs control, p < 0.01 from one another, listed as HN-BBAU): 74%; % Growth Inhibition of DAN cells in culture ([8]; potentiator 50 μM, added 5 minutes prior to FdUrd 0.3 μM, listed as HN-BBAU): 83%

— US4613604A, “Hydroxymethyl derivatives of 5-benzylacyclouridine and 5-benzoyloxybenzylacyclouridine and their use as potentiators for 5-fluoro-2'-deoxyuridine” (Brown University Research Foundation, priority 1985, dated 1986)
